Source: patent US9192672B2, “Zwitterion solution for low-volume therapeutic delivery” (Wayne State University Board of Governors, priority 2007, dated 2015)
In brackets after ≈: the same amount, converted by molar mass.

Assays:
physchem [1] = conditions: aqueous buffer, thermodynamic from solid
[2] = cited from earlier work
physchem [3] = conditions: saline or isotonic, thermodynamic from solid
Solubility in saline = type: physicochemical; conditions: for solubility: saline, saline or isotonic
[4] = Solubility in artificial cerebrospinal fluid (aCSF); conditions: Table 2, artificial CSF
[5] = artificial cerebrospinal fluid (aCSF)

| Structure (SMILES) | solubility (physchem [1]) [µg/mL] | solubility (Solubility in saline; Table 2, saline) [µg/mL] | solubility (physchem [1]; MPI solution or aCSF) [µg/mL] | Solubility In Artificial CSF [4] [µg/mL] | also measured |
| --- | --- | --- | --- | --- | --- |
| CC(Cc1ccc(OCC(=O)O)cc1)NCC(O)c1csc(C(F)(F)F)n1 (stereo not shown) [(4-{2-[2-hydroxy-2-(2-trifluoromethyl-thiazol-4-yl)-ethylamino]-propyl}-phenoxy)-acetic acid] | > 205 | – | – | – | – |
| C=CC1=C(C(=O)O)N2C(=O)[C@@H](NC(=O)/C(=N\O)c3csc(N)n3)[C@H]2SC1 [cefdinir] | > 205 | – | – | – | – |
| NCC(CC(=O)O)c1ccc(Cl)cc1 (stereo not shown) [baclofen] | – | – | – | – | Concentration achieved in aCSF ([2]; differing forms of aCSF, earlier in vivo studies): less than 0.21 mg/ml; Solubility in aqueous saline solution ([2]; extreme heating at 100° Celsius, sonication, high speed stirring, US 2006/0009523): ≤ 12000 µg/mL; Concentration by back titration method ([2]; initial dissolution in acid pH below 3.87, then base, US 2006/0009523): ~10000 µg/mL |
| C=CC1=C(C(=O)O)N2C(=O)[C@@H](NC(=O)/C(=N\OCC(=O)O)c3csc(N)n3)[C@H]2SC1 [cefixime] | – | 55 (≈ 121 µM) | > 205 | >80 | solubility (physchem [3]; [5]): > 72 µg/mL; Solubility In Saline (Solubility in saline; Table 2, saline): 68 µg/mL (≈ 150 µM) |
| NC1C2CN(c3nc4c(cc3F)c(=O)c(C(=O)O)cn4-c3ccc(F)cc3F)CC12 (stereo not shown) [7-(6-amino-3-aza-bicyclo[3.1.0]hex-3-yl)-1-(2,4-difluoro-phenyl)-6-fluoro-4-oxo-1,4-dihydro-[1,8]naphthyridine-3-carboxylic acid] | > 205 | – | – | – | – |
| CO/N=C(\C(=O)N[C@@H]1C(=O)N2C(C(=O)O)=C(CSc3nc(=O)c(=O)[nH]n3C)CS[C@H]12)c1csc(N)n1 [Ceftriaxone, ceftriaxone] | – | 205 (≈ 370 µM) | > 205 | >250 | solubility (physchem [3]; [5]): > 250 µg/mL; solubility (Solubility in saline; Table 1, saline): 205 µg/mL (≈ 370 µM); solubility (Solubility in saline; text of Examples 8-14): 205 µg/mL (≈ 370 µM); solubility (physchem [1]; multivalent physiologic ion (MPI) solution): ≥ 700 µg/mL |
| CC(=O)OCC1=C(C(=O)O)N2C(=O)[C@@H](NC(=O)CSc3ccncc3)[C@H]2SC1 [cephaprine] | – | – | – | >1200 | Solubility In Saline (Solubility in saline; Table 2, saline): 1000 µg/mL (≈ 2360 µM) |
| CO/N=C(\C(=O)N[C@@H]1C(=O)N2C(C(=O)[O-])=C(C[N+]3(C)CCCC3)CS[C@H]12)c1csc(N)n1 [cefepime] | > 205 | 66 (≈ 137 µM) | – | – | solubility (physchem [3]): > 78 µg/mL |
| COCC1=C(C(=O)O)N2C(=O)[C@@H](NC(=O)/C(=N\OC)c3csc(N)n3)[C@H]2SC1 [cefpodoxime] | > 205 | – | – | – | – |
| CCOC(=O)C1=C(COCCNC(=O)/C=C\C(=O)O)NC(C)=C(C(=O)OC)C1c1ccccc1Cl (stereo not shown) [(Z)-4-[(2-{[4-(2-chlorophenyl)-3-(ethoxycarbonyl)-5-(methoxycarbonyl)-6-methyl-1,4-dihydro-2-pyridinyl]methoxy}ethyl)amino]-4-oxo-2-butenoic acid] | – | – | > 205 | – | – |
